Results on 1 molecule are retold here after US10287292B2, “CXCR7 antagonists” (CHEMOCENTRYX, INC., priority 2012, dated 2019).

The test system of one test is C6 cells. The test can be described thus: Rat C6 model of glioblastoma. Type of test: in vivo. The following applies: C6 cells implanted into brains of Sprague-Dawley rats, tumors irradiated with 5-20 Gy after 7 days, then compound vs vehicle control. The procedure:
Many tumor models in animals are known in the art, and may be employed to evaluate a compound of instance. For instance, in a rat C6 model of glioblastoma, 1×10^6 C6 cells were implanted by stereotactic injection into the into the brains of Sprague-Dawley rats. After 7 days tumors were irradiated with between 5-20 Gy of radiation. Following irradiation rats were treated (eg via subcutaneous, intraperitoneal, oral, parenteral or other route) with compound or vehicle control and tumors are allowed to progress. Animals were followed until death or loss of >20% weight, or removed for tumor induced neurodeficits eg seizures and immobility in according with appropriate regulations and standards.

In test [1] the target is T1, CXCR7 receptor (Homo sapiens (Human), UniProt P25106). The test can be described thus: Serum Binding Analysis: displacement of 125I-labeled SDF-1 from CXCR7 in 100% human serum. Particulars: 125I SDF-1 displacement in 100% human serum, MCF-7 and/or MDA-MB-435S CXCR7 transfected cells, 3 hrs at 4° C.; read-out: Avg Ser IC50. A digest of the protocol: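 MCF-7 or CXCR7-transfected MDA-MB-435S cells incubated with compounds and 125I-SDF-1 in human AB serum plus 10 mM HEPES, pH 7.4, for 3 h at 4° C with gentle agitation. Bound radioligand separated by filtration; IC50 from displacement across multiple concentrations.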
T1 sequence (P25106 whole entry): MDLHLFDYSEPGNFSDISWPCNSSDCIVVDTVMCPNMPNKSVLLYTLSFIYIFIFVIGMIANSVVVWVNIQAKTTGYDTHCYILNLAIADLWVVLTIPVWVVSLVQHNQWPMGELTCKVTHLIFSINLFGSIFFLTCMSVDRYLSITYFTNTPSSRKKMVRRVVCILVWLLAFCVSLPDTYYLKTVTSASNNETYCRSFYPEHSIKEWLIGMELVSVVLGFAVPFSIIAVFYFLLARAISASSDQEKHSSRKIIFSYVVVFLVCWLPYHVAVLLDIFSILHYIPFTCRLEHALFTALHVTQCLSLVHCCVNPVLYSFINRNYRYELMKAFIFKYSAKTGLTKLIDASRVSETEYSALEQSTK
On the technique in general: In a radioligand displacement assay an active substance lowers the binding of a labelled ligand.

Test [2] addresses T1, CXCR7 receptor. The test can be described thus: Buffer Binding Analysis: displacement of 125I-labeled SDF-1 from CXCR7. Particulars: 125I SDF-1 displacement, buffer binding medium, MCF-7 and/or MDA-MB-435S CXCR7 transfected cells, 3 hr at 4° C.; read-out: Avg Bind IC50. The procedure: The compounds were combined with cells expressing the CXCR7 receptor (e.g., MCF cells or cells transfected to express CXCR7) in the presence of the 125 I-labeled SDF-1 chemokine as detailed in Determination of IC50 values. Reagents and Cells (see below). The ability of the compounds to displace the labeled chemokine from the CXCR7 receptor sites at multiple concentrations was then determined with the screening process.
Compounds that were deemed effective modulators were able to displace at least 50% of the SDF-1 from the CXCR7 receptor at concentrations at or below 15 micromolar (μM) but >2500 nM (+); and more preferably at concentrations from >500 nM to ≤2500 nM (++). At present, especially preferred compounds can displace at least 50% of the SDF-1 from the CXCR7 receptor at concentrations at or below 500 nM (+++). Exemplary compounds that met these criteria are reproduced in Table 1 and the Examples above. In Table 1, Avg Bind IC50 refers to the Buffer Binding Analysis described below, while Avg Ser IC50 refers to the Serum Binding Analysis described below. All compounds were prepared as described in the Examples above, or by related methods substituting readily available starting materials.
^125I-labeled SDF-1 was purchased from Perkin-Elmer Life Sciences, Inc. (Boston, Mass.). The MCF-7 (adenocarcinoma; mammary gland) cell line was obtained from the American Type Culture Collection (ATCC, Manassas, Va.) or and was cultured in DMEM (Mediatech, Herndon, Va.) supplemented with 10% fetal bovine serum (FBS) (HyClone Logan, Utah) and bovine insulin (0.01 mg/mL) (Sigma. St. Louis, Mo.) at 37° C. in a humidified incubator at a 5% CO2/air mixture. CXCR7 transfected MDA-MB-435S were produced as described below. MDA-MB-435S human breast cancer line, was purchased from ATCC, and cultured in DMEM/10% FBS medium. The complete coding sequence of the gene encoding CXCR7 (a.k.a. CCXCKR2, hRDC1), was isolated from MCF-7 cells using μMACs mRNA isolation kit (Miltenyi Biotec, Auburn, Calif.). DNA contamination was removed by DNase digestion via RNeasy columns (Qiagen, Inc., Valencia, Calif.) and cDNA was generated using GeneAmp RNA PCR Core Kit (Applied Biosystems, Foster City. Calif.). PCR of cDNA samples was performed using Taq PCR Master Mix kit (Qiagen. Inc.) and hRDC1 primers harboring 5′ and 3′ Not I sites (hRDC1F 5′ […]-3, hRDC1R 5′-[…]-3′) Not I digested PCR product was ligated into Not I digested pcDNA3.1(+)(Invitrogen, Carlsbad, Calif.) and screened for orientation and sequence confirmed. Plasmid DNA was then isolated from overnight bacterial cultures by Maxiprep (Qiagen, Inc.). Plasmid DNA (10 μg) was added to MDA-MB-435s cells and cells were electroporated (0.22 kV, 960 uF) via Gene Pulser (Biorad laboratories, Hercules, Calif.). 48 hr post-electroporation, cells were transferred to selection medium (600 ug/ml G418).
Target compounds can be tested to determine their ability to bind with CXCR7 sites on MCF-7 and/or MDA-MB-435S CXCR7 transfected cells. Efficiency-maxim/zed radioligand binding using filtration protocols as described in Dairaghi D J, et al., HHV8-encoded vMIP-I selectively engages chemokine receptor CCR5. Agonist and antagonist profiles of viral chemokines., J. Biol. Chem. 1999 Jul. 30; 274(31): 21569-74 and Gosling J. et al., Cutting edge: identification of a novel chemokine receptor that binds dendritic cell-and T cell-active chemokines including ELC. SLC, and TECK., J. Immunol. 2000 Mar. 15; 164(6):2851-6 was used.
In these assays, MCF-7 and/or MDA-MB-435S cells are interrogated with the target compounds and the ability of these compounds to displace ^125I radiolabeled SDF-1 assessed using the protocol described in Dairaghi and Gosling. […]

Usually IC50 stands for the concentration that gives 50% inhibition.

A value given as a limit tells only on which side of the number the result lay.

Regarding `O=C(N[C@H]1CCN(c2nccn3ccnc23)C1)c1ncn(-c2ccc(F)cc2)n1` [Compound 1.090], the “antitumor activity (delay in tumor growth, Kaplan Meier analysis of survival)” value in the test with C6 cells is given as “profound antitumor activity”. The half-maximal inhibitory concentration (IC50) at CXCR7 receptor [1] and on CXCR7 receptor [2] was not above 500 nM each time.
